Results taken from publication PMC11149917, “Translational and Therapeutic Evaluation of RAS-GTP Inhibition by RMC-6236 in RAS-Driven Cancers” (Cancer Discovery, 2024).
Where two headings read alike, the source gives them in different places.

Assay: Mouse blood and tissue PK (LC/MS-MS)
Assay type: in vivo
Conditions: for AUC(0-t): read-out: Blood AUClast
Procedure: For single-dose PKPD study, mice were randomized and assigned into groups (n = 3/dose/time point). […] Blood and tissues, including the tumor, brain, colon, ear skin, and muscle, were harvested at indicated time points. […] The whole blood, tumor, brain, colon, and ear skin concentrations of RMC-6236 were determined using liquid chromatography–tandem mass spectrometry (LC/MS-MS) methods. […] After thorough mixing and centrifugation, the supernatant was diluted with water or directly analyzed on a Sciex 5500 or Sciex 6500+ triple quadrupole mass spectrometer equipped with an ACQUITY or Shimadzu UPLC system. […] Bioanalysis on blood and tissue samples from xenograft models was run at Pharmaron and Wuxi AppTec. Concentrations reported as below the quantification limit were treated as zero for PK analysis. PK parameters were calculated by noncompartmental analysis of the concentration–time profiles using Phoenix WinNonLin (version 8.3 Certara). Apparent terminal elimination half-life (t1/2) values were calculated as ln(2)/k, where k represents the terminal elimination rate constant. Area under the concentration–time curve (AUC) values were estimated using a linear trapezoidal method. AUClast values were calculated from the dosing time to the last quantifiable concentration. Maximum concentration (Cmax) was recorded as observed.

[1] = mouse, whole blood, oral, 10 mg/kg, Model Validation Dataset, 10mg/kg_study6, read-out: Blood Concentration
[2] = mouse, whole blood, oral, 25 mg/kg, Model Development Dataset, 25mg/kg_study8, read-out: Blood Concentration
[3] = mouse, whole blood, oral, 25 mg/kg, Model Development Dataset, 25mg/kg_study8r (doses every 24 h, 0-[…])
[4] = mouse, whole blood, oral, 25 mg/kg, Model Validation Dataset, 25mg/kg_study6, read-out: Blood Concentration
[5] = mouse, whole blood, oral, 40 mg/kg, Model Development Dataset, 40mg/kg_study8, read-out: Blood Concentration
[6] = mouse, whole blood, oral, 40 mg/kg, Model Development Dataset, 40mg/kg_study8r (doses every 24 h, 0-[…])
[7] = mouse, whole blood, oral, 50 mg/kg, Model Validation Dataset, 50mg/kg_study6, read-out: Blood Concentration
[8] = mouse, whole blood, po, 1 mg/kg, NCI-H441 #1 (1 mg/kg), QD x 28 days
[9] = mouse, whole blood, po, 3 mg/kg, NCI-H441 (3 mg/kg), single dose
[10] = mouse, whole blood, po, 5 mg/kg, NCI-H441 #1 (5 mg/kg), QD x 28 days
[11] = mouse, whole blood, po, 10 mg/kg, NCI-H441 #1 (10 mg/kg), QD x 28 days
[12] = mouse, whole blood, po, 10 mg/kg, NCI-H441 (10 mg/kg), single dose
[13] = mouse, whole blood, po, 25 mg/kg, HPAC (25 mg/kg), single dose
[14] = mouse, whole blood, po, 25 mg/kg, KP-4 (25 mg/kg), single dose
[15] = mouse, whole blood, po, 25 mg/kg, NCI-H358 (25 mg/kg), single dose
[16] = mouse, whole blood, po, 25 mg/kg, NCI-H441 #1 (25 mg/kg), QD x 28 days
[17] = mouse, whole blood, po, 25 mg/kg, NCI-H441 #2 (25 mg/kg), QD x 10 days
[18] = mouse, whole blood, po, 25 mg/kg, NCI-H441 (25 mg/kg), single dose
[19] = mouse, whole blood, po, 25 mg/kg, NCI-H2122 (25 mg/kg), single dose

CCn1c(-c2cc(N3CCN(C)CC3)cnc2[C@H](C)OC)c2c3cc(ccc31)-c1csc(n1)C[C@H](NC(=O)[C@H]1C[C@@H]1C)C(=O)N1CCC[C@H](N1)C(=O)OCC(C)(C)C2 [RMC-6236]
concentration at 24 h (mouse, tumor, oral, 50 mg/kg, Model Validation Dataset, 50mg/kg_study6, 24 h, read-out: Tumor Concentration): 2100 nM
concentration at 48 h (mouse, tumor, oral, 50 mg/kg, Model Validation Dataset, 50mg/kg_study6, 48 h, read-out: Tumor Concentration): 1240 nM
concentration at 72 h (mouse, tumor, oral, 50 mg/kg, Model Validation Dataset, 50mg/kg_study6, 72 h): 621 nM
concentration at 8 h (mouse, tumor, oral, 50 mg/kg, NCI-H441 xenograft tumor, study NCI-H441#6, 50 mg/kg, 8h, read-out: RMC-6236 (nM) Tumor): 4770 nM
concentration at 24 h (mouse, tumor, oral, 50 mg/kg, NCI-H441 xenograft tumor, study NCI-H441#6, 50 mg/kg, 24h, read-out: RMC-6236 (nM) Tumor): 1960 nM
concentration at 8 h (mouse, tumor, oral, 100 mg/kg, KP-4, study KP-4 #4, 100 mg/kg, 8h, read-out: RMC-6236 (nM) Tumor): 10200 nM
concentration at 24 h (mouse, tumor, oral, 100 mg/kg, KP-4, study KP-4 #4, 100 mg/kg, 24h, read-out: RMC-6236 (nM) Tumor): 7000 nM
concentration at 24 h (mouse, tumor, oral, 100 mg/kg, NCI-H441 xenograft tumor, study NCI-H441#6, 100 mg/kg, 24h, read-out: RMC-6236 (nM) Tumor): 3020 nM
concentration at 48 h (mouse, tumor, oral, 100 mg/kg, NCI-H441 xenograft tumor, study NCI-H441#6, 100 mg/kg, 48h, read-out: RMC-6236 (nM) Tumor): 2060 nM
half-life (mouse, tumor, po, 3 mg/kg, NCI-H441 (3 mg/kg), single dose, read-out: Tumor t1/2 (converted)): 17.1 h
half-life (mouse, tumor, po, 25 mg/kg, HPAC (25 mg/kg), single dose, read-out: Tumor t1/2 (converted)): 14 h
half-life (mouse, tumor, po, 25 mg/kg, KP-4 (25 mg/kg), single dose, read-out: Tumor t1/2 (converted)): 11.3 h
half-life (mouse, tumor, po, 25 mg/kg, NCI-H358 (25 mg/kg), single dose, read-out: Tumor t1/2 (converted)): 10.2 h
half-life (mouse, tumor, po, 25 mg/kg, NCI-H441 (25 mg/kg), single dose, read-out: Tumor t1/2 (converted)): 46.1 h
concentration at 0.5 h (mouse, whole blood, oral, 10 mg/kg, Model Validation Dataset, 10mg/kg_study6): 435 nM
concentration at 1 h [1]: 642 nM
concentration at 2 h [1]: 642 nM
concentration at 4 h [1]: 441 nM
concentration at 8 h (mouse, whole blood, oral, 10 mg/kg, Model Validation Dataset, 10mg/kg_study6, 8 h, read-out: Blood Concentration): 309 nM
concentration at 24 h (mouse, whole blood, oral, 10 mg/kg, Model Validation Dataset, 10mg/kg_study6, 24 h, read-out: Blood Concentration): 3.91 nM
Cmax (mouse, whole blood, oral, 10 mg/kg, Naïve Mice #1 (10 mg/kg), single dose): 744 ng/mL
concentration at 0.5 h (mouse, whole blood, oral, 25 mg/kg, Model Development Dataset, 25mg/kg_study8): 806 nM
concentration at 1 h [2]: 979 nM
concentration at 2 h [2]: 1410 nM
concentration at 4 h [2]: 1430 nM
concentration at 8 h (mouse, whole blood, oral, 25 mg/kg, Model Development Dataset, 25mg/kg_study8, 8 h, read-out: Blood Concentration): 802 nM
concentration at 24 h (mouse, whole blood, oral, 25 mg/kg, Model Development Dataset, 25mg/kg_study8, 24 h, read-out: Blood Concentration): 7.71 nM
concentration at 216.5 h [3]: 1180 nM
concentration at 220 h [3]: 849 nM
concentration at 240 h (mouse, whole blood, oral, 25 mg/kg, Model Development Dataset, 25mg/kg_study8r (doses every 24 h, 0-[…]), read-out: Blood Concentration): 5.4 nM
concentration at 0.5 h (mouse, whole blood, oral, 25 mg/kg, Model Validation Dataset, 25mg/kg_study6): 598 nM
concentration at 1 h [4]: 885 nM
concentration at 2 h [4]: 1540 nM
concentration at 4 h [4]: 1140 nM
concentration at 8 h (mouse, whole blood, oral, 25 mg/kg, Model Validation Dataset, 25mg/kg_study6, 8 h, read-out: Blood Concentration): 755 nM
concentration at 24 h (mouse, whole blood, oral, 25 mg/kg, Model Validation Dataset, 25mg/kg_study6, 24 h, read-out: Blood Concentration): 15.6 nM
concentration at 0.5 h (mouse, whole blood, oral, 40 mg/kg, Model Development Dataset, 40mg/kg_study8): 1320 nM
concentration at 1 h [5]: 1580 nM
concentration at 2 h [5]: 2770 nM
concentration at 4 h [5]: 1480 nM
concentration at 8 h (mouse, whole blood, oral, 40 mg/kg, Model Development Dataset, 40mg/kg_study8, 8 h, read-out: Blood Concentration): 1200 nM
concentration at 24 h (mouse, whole blood, oral, 40 mg/kg, Model Development Dataset, 40mg/kg_study8, 24 h, read-out: Blood Concentration): 8 nM
concentration at 216.5 h [6]: 1760 nM
concentration at 220 h [6]: 1550 nM
concentration at 240 h (mouse, whole blood, oral, 40 mg/kg, Model Development Dataset, 40mg/kg_study8r (doses every 24 h, 0-[…]), read-out: Blood Concentration): 7.54 nM
concentration at 0.5 h (mouse, whole blood, oral, 50 mg/kg, Model Validation Dataset, 50mg/kg_study6): 1420 nM
concentration at 1 h [7]: 1820 nM
concentration at 2 h [7]: 2770 nM
concentration at 4 h [7]: 1980 nM
concentration at 8 h (mouse, whole blood, oral, 50 mg/kg, Model Validation Dataset, 50mg/kg_study6, 8 h, read-out: Blood Concentration): 1350 nM
concentration at 24 h (mouse, whole blood, oral, 50 mg/kg, Model Validation Dataset, 50mg/kg_study6, 24 h, read-out: Blood Concentration): 22.4 nM
concentration at 48 h (mouse, whole blood, oral, 50 mg/kg, Model Validation Dataset, 50mg/kg_study6, 48 h, read-out: Blood Concentration): 2.76 nM
Cmax (mouse, whole blood, oral, 50 mg/kg, Naïve Mice #1 (50 mg/kg), single dose): 2960 ng/mL
Cmax [8]: 79.2 ng/mL
AUC(0-t) [8]: 384 ng·h/mL
half-life (mouse, whole blood, po, 1 mg/kg, NCI-H441 #1 (1 mg/kg), QD x 28 days, read-out: Blood t1/2 (converted)): 2.9 h
Cmax [9]: 219 ng/mL
AUC(0-t) [9]: 1180 ng·h/mL
Cmax [10]: 286 ng/mL
AUC(0-t) [10]: 1330 ng·h/mL
half-life (mouse, whole blood, po, 5 mg/kg, NCI-H441 #1 (5 mg/kg), QD x 28 days, read-out: Blood t1/2 (converted)): 4.09 h
Cmax [11]: 533 ng/mL
AUC(0-t) [11]: 2780 ng·h/mL
half-life (mouse, whole blood, po, 10 mg/kg, NCI-H441 #1 (10 mg/kg), QD x 28 days, read-out: Blood t1/2 (converted)): 3.22 h
Cmax [12]: 520 ng/mL
AUC(0-t) [12]: 3810 ng·h/mL
half-life (mouse, whole blood, po, 10 mg/kg, NCI-H441 (10 mg/kg), single dose, read-out: Blood t1/2 (converted)): 2.93 h
Cmax [13]: 1310 ng/mL
AUC(0-t) [13]: 12000 ng·h/mL
half-life (mouse, whole blood, po, 25 mg/kg, HPAC (25 mg/kg), single dose, read-out: Blood t1/2 (converted)): 2.62 h
Cmax [14]: 1460 ng/mL
AUC(0-t) [14]: 12500 ng·h/mL
half-life (mouse, whole blood, po, 25 mg/kg, KP-4 (25 mg/kg), single dose, read-out: Blood t1/2 (converted)): 2.61 h
Cmax [15]: 1150 ng/mL
AUC(0-t) [15]: 8720 ng·h/mL
half-life (mouse, whole blood, po, 25 mg/kg, NCI-H358 (25 mg/kg), single dose, read-out: Blood t1/2 (converted)): 2.78 h
Cmax [16]: 1250 ng/mL
AUC(0-t) [16]: 6950 ng·h/mL
half-life (mouse, whole blood, po, 25 mg/kg, NCI-H441 #1 (25 mg/kg), QD x 28 days, read-out: Blood t1/2 (converted)): 3.46 h
Cmax [17]: 1080 ng/mL
AUC(0-t) [17]: 6660 ng·h/mL
half-life (mouse, whole blood, po, 25 mg/kg, NCI-H441 #2 (25 mg/kg), QD x 10 days, read-out: Blood t1/2 (converted)): 2.67 h
Cmax [18]: 1250 ng/mL
AUC(0-t) [18]: 9060 ng·h/mL
half-life (mouse, whole blood, po, 25 mg/kg, NCI-H441 (25 mg/kg), single dose, read-out: Blood t1/2 (converted)): 3.11 h
Cmax [19]: 1110 ng/mL
AUC(0-t) [19]: 7930 ng·h/mL
half-life (mouse, whole blood, po, 25 mg/kg, NCI-H2122 (25 mg/kg), single dose, read-out: Blood t1/2 (converted)): 4.5 h
RMC-6236 (nM) Tumor (sheet Ear Skin, model Capan-2, study Capan-2 #3_PHA 2023, 3 mg/kg, 48h): BQL
RMC-6236 (nM) Tumor (sheet colon, Capan-2, Capan-2 #3_PHA 2023, 3 mg/kg, 24h): BQL
RMC-6236 (nM) Tumor (sheet colon, Capan-2, Capan-2 #3_PHA 2023, 3 mg/kg, 48h): BQL
RMC-6236 (nM) Tumor (sheet colon, Capan-2, Capan-2 #3_PHA 2023, 10 mg/kg, 48h): BQL
RMC-6236 (nM) Tumor (sheet colon, Capan-2, Capan-2 #3_PHA 2023, 25 mg/kg, 48h): BQL
RMC-6236 (nM) Tumor (sheet colon, Capan-2, Capan-2 #3_PHA 2023, 50 mg/kg, 48h): BQL
RMC-6236 (nM) Tumor (sheet colon, Capan-2, Capan-2 #3_PHA 2023, 100 mg/kg, 48h): BQL
RMC-6236 (nM) Tumor (sheet colon, KP-4, KP-4 #5, 25 mg/kg, 48h): BQL
